According to article PMC11603412, “Anti-hepatocellular carcinoma activities of novel hydrazone derivatives via downregulation of interleukin-6” (RSC Advances, 2024):
Entries after “also recorded” stand apart in the source; their conditions may differ.

Assays:
HepG2 cell line = assay: MTT cytotoxicity assay, HepG2; assay type: cell-based, human; conditions: for IC50: Homo sapiens, HepG2, 24 h; for cytotoxic action against HepG2: MTT assay, in words
Procedure: (§1) The HepG2 cell line was obtained from ATCC (Rockville, MD). Liver mesenchymal stem cells were harvested from liver biopsy according to previously published protocols.[34] Cells were grown in DMEM media with 10% fetal bovine serum (FBS), 100 U per mL penicillin, and […] streptomycin at 37 °C, 5% CO2. The MTT assay kit, which relies on succinate dehydrogenase in living cells' mitochondria to convert the 3-(4,5-dimethylthiazol-2-yl)-2,5-diphenyltetrazolium bromide (MTT) dye to violet formazan crystals, was used to calculate the vitality of individual cells. 6000 cells per well were seeded in the 96-well plate containing, which were then incubated for 24 h. Different concentrations of drug were dissolved in DMEM and then added to the wells to replace the culture medium. The medium was discarded after incubation for 24 h under the same conditions, and 100 μL of MTT (2 mg mL^−1) were added. After 3 h of incubation at 37 °C, the generated formazan crystals generated were dissolved in 50 μL of DMSO. The optical density was then measured using a Stat Fax ELISA plate reader (Romer Labs, Getzersdorf, Austria) at 570 nm with a reference wavelength of 630 nm after incubating the plate at 37 °C for 15 min. As a positive control, the tyrosine kinase inhibitor sorafenib (Bayer, Germany) was employed. DMSO was used as a solvent and its final concentration was less than 0.2%. SI and IC50 were calculated. Triplicates of each in vitro test were performed.[33]

HepG2 cells [1] = assay: Active caspase 3 apoptosis flow cytometry; assay type: cell-based, human; conditions: for percentage of apoptotic cells compared to the control group: HepG2, active caspase 3, in words; for percentage of apoptotic cells: HepG2, active caspase 3, text value
Procedure: (§2) Cells were harvested, aliquoted up to 1 × 10^6 cells/100 μL in FACS tubes, washed twice with 2 mL of PBS, centrifuged at 300 × g for five minutes, and the buffer was decanted. Reconstituted cells in 100 μL of staining buffer for flow cytometry. HepG2 cells were stained with propidium iodide according to the technique offered via the kit and subsequently performed on the cytometer. The distribution of the cell cycles was estimated and analyzed using a FACScan TM device (BD, Franklin Lakes, NJ). Furthermore, the caspase-3 apoptotic marker levels were investigated by flow cytometry. During the flow cytometry assay, we investigated a population of HepG2 cells to obtain enough cells for statistically significant detection.
FITC active caspase-3 apoptosis kit (BD Biosciences, Franklin Lakes, NJ, USA) was used for detection of active caspase 3 followed by flow cytometry analysis according to the instructions of the kit manufacturer.

HepG2 cells [2] = assay: Wound healing (cell migration) assay; assay type: cell-based, human; conditions: for cell migration of HepG2 cells: 24 h, versus untreated control; for antimigration effect compared to sorafenib: HepG2, 24 h, quantified relative migration
Procedure: The wound healing assay was used to investigate the anti-cell migration/antiproliferation effects of synthesized hydrazone derivatives on the HepG2 cell line. In DMEM medium supplemented with 10% fetal bovine serum (FBS), 100 U per mL penicillin, and […] streptomycin, cells were cultured at 37 °C and 5% CO2. After reaching 80% density, the monolayer cells were scratched using a sterile tip and then washed with phosphate buffered saline, pH 7.4. Different hydrazone derivatives were applied to cells, which were then incubated for 24 h at 37 °C and 5% CO2. Finally, an Olympus microscope (Olympus Europa, Hamburg, Germany) was used to take pictures of the wound areas at 0 and 24 h. The relative cell migration was calculated using the following equation:Relative migration = (width0h − width24h)/width0h

[3] = tested on: Liver mesenchymal stem cells; assay: MTT cytotoxicity assay, liver mesenchymal stem cells (normal cell line); assay type: cell-based; conditions: 24 h
Procedure: as §1

IL-6 = IL-6 gene expression (RT-PCR); assay type: cell-based; conditions: normalised to β-actin, versus control group
Procedure: After two rounds of PBS washing, total RNA was extracted using the TRIzol Reagent, and cDNA synthesis was performed using the high-capacity cDNA reverse transcription kit in accordance with the manufacturer's instructions. The qPCR reaction mixture contained so-fast EvaGreen supermix (10 μL), cDNA (2 μL), invitrogen RT-PCR grade water (6 μL), and the primer pair (500 nM; forward primer 5′-CAAATTCGGTACATCCTC-3′, reverse primer 5′-CTGGCTTGTTCCTCACTA-3′). The amplification started with heating 10 min at 95 °C, followed by 40 cycles of 15 s at 95 °C, 20 s at 55 °C and 30 s at 72 °C. The amplification data was then analyzed as previously described previously with normalization to β-actin.[35]

HepG2 cells [4] = assay: Propidium iodide cell cycle flow cytometry; assay type: cell-based, human
Procedure: as §2

Cytochrome C = Cytochrome C sandwich ELISA; assay type: cell-based; conditions: versus control group
Procedure: Cytochrome C was quantified using a sandwich ELISA kit (Abcam, Cambridge, UK) according to the manufacturer's procedures. After the addition of the TMB substrate and the development of the color, the optical density was measured using a Stat fax microplate reader, USA, at 450 nm.

Structure (SMILES) | IC50 (HepG2 cell line) [µM] | cytotoxic action against HepG2 (HepG2 cell line) | percentage of apoptotic cells compared to the control group (HepG2 cells [1]) | cell migration of HepG2 cells (HepG2 cells [2]) | IC50 [3] [µM] | antimigration effect compared to sorafenib (HepG2 cells [2]) | IL-6 mRNA expression (IL-6) | cells in G2/M phase (HepG2 cells [4]) [%] | cells in S-phase (HepG2 cells [4]) [%] | percentage of apoptotic cells (HepG2 cells [1]) [%] | cytochrome C concentration (Cytochrome C) | cells in the G0/G1 phase (HepG2 cells [4]) [%]
NN=C(C1CC1)C1CC1 [Compound 2, dicyclopropylmethylene hydrazone] | 94.7 | excellent cytotoxic action | increased significantly | substantially reduced | > 100 | – | – | – | – | – | – | –
COc1ccc(/C=N\N=C(C2CC2)C2CC2)cc1 [Compound 3a] | 48.2 | – | – | – | > 100 | – | – | – | – | – | – | –
O=[N+]([O-])c1ccc(/C=N\N=C(C2CC2)C2CC2)cc1 [Compound 3b] | > 100 | – | – | – | 90.2 | – | – | – | – | – | – | –
O=C1Nc2ccccc2/C1=N/N=C(C1CC1)C1CC1 [Compound 4, 3-(dicyclopropylmethylene)hydrazone indolin-2-one] | 53.7 | excellent cytotoxic action | increased significantly | substantially reduced | 100 | – | – | – | – | – | – | –
Oc1ccccc1/C=N/N=C/c1ccccc1O [Compound 5] | 75.8 | – | – | – | > 100 | – | – | – | – | – | – | –
NC1=NNC2(C(=O)Nc3ccccc32)N1N=C(C1CC1)C1CC1 (centres unmarked) [Compound 7a] | > 100 | – | – | – | > 100 | – | – | – | – | – | – | –
O=C1Nc2ccccc2C12NN=C(c1ccccc1)N2N=C(C1CC1)C1CC1 (centres unmarked) [Compound 7b] | > 100 | – | – | – | 100 | – | – | – | – | – | – | –
NC1=NNC(c2ccccc2O)N1/N=C\c1ccccc1O (centres unmarked) [Compound 8a] | 62.2 | excellent cytotoxic action | increased significantly | substantially reduced | 100 | – | – | – | – | – | – | –
Oc1ccccc1/C=N\N1C(c2ccccc2)=NNC1c1ccccc1O (centres unmarked) [Compound 8b] | > 100 | – | – | – | 75.5 | – | – | – | – | – | – | –
Cc1nc2ccccc2c(=O)n1N=C(C1CC1)C1CC1 [Compound 11, 3-((dicyclopropylmethylene)amino)-2-methylquinazolin-4(3H)-one] | > 100 | – | – | – | > 100 | – | – | – | – | – | – | –
O=C1C(=O)c2ccccc2C2=C1NNC(C1CC1)(C1CC1)O2 [Compound 13] | 61.4 | excellent cytotoxic action | increased significantly | substantially reduced | 85.2 | significant antimigration effect | – | – | – | – | – | –
O=C1CCC(=O)N1N=C(C1CC1)C1CC1 [Compound 16] | 23.6 | excellent cytotoxic action | increased significantly | substantially reduced | 76.5 | significant antimigration effect | significant (P < 0.001) decrease | 1.2 | 4.5 | 80 | significant increase; also recorded: increase in cytochrome C greater than sorafenib | –
NC1=CC(=O)NNC1(C1CC1)C1CC1 [Compound 18] | 89.5 | excellent cytotoxic action | increased significantly | substantially reduced | 100 | – | – | – | – | – | – | –
Cc1nc2ccccc2c(=O)n1NC(=S)N=C(C1CC1)C1CC1 [Compound 20] | 48.6 | excellent cytotoxic action | increased significantly | substantially reduced | 61.5 | significant antimigration effect | – | – | – | – | – | –
CNC(=O)c1cc(Oc2ccc(NC(=O)Nc3ccc(Cl)c(C(F)(F)F)c3)cc2)ccn1 [Sorafenib, reference compound] | 25.6 | excellent cytotoxic action | increased significantly | substantially reduced | 100 | – | significant (P < 0.001) decrease | 10.68 | 4.17 | 75 | significant increase | 74.93
